Measured values from ChEMBL document CHEMBL1201862, “PubChem BioAssay data set” (2004).
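Five concentrations, 48 hours, 96-well plates. GI50 marks 50% less growth.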 Calls of active or inactive are those of the source. Rule as the data show it: active = GI50 up to about 1.1 µM and inactive = higher. Non-standard residues stand in square brackets, D forms with d. Residues, ends and D or L forms follow the SMILES beside them. ξ: configuration not given here. Pen = CC(C)(S)[C@H](N)C(=O)O; ξL = CC(C)CC(N)C(=O)O

How the values were obtained:
Assay in all cases: inhibition of tumour cell growth, NCI panel, 48 h
[1] = test system: DMS-114
[2] = test system: DLD-1
[3] = test system: SR
[4] = test system: LXFL 529
[5] = test system: 786-0
[6] = test system: RXF 631
[7] = test system: Hs-578T
[8] = test system: MDA-MB-435
[9] = test system: BT-549

C[S+](C)CC1OC(n2cnc3c(N)ncnc32)C(O)C1O (stereo unspecified)
GI50 [1]: > 225 µM (inactive)
GI50 [2]: > 225 µM (inactive)

CC[C@H]1CN2CCc3cc(OC)c(OC)cc3[C@@H]2C[C@@H]1C[C@H]1NCCc2cc(O)c(OC)cc21
GI50 [1]: 0.025 µM (active)
GI50 [2]: 0.0277 µM (active)
GI50 [3]: < 0.01 µM (active)

c1ccc2c(c1)SCCc1cn[nH]c1-2
GI50 [1]: > 100 µM (inactive)
GI50 [2]: > 100 µM (inactive)

N/N=C(\C(=O)Nc1c(Cl)cc([N+](=O)[O-])cc1Cl)C(c1cnc2ccc([N+](=O)[O-])cc2n1)[N+](=O)[O-] (stereo unspecified)
GI50 [1]: 36.3 µM (inactive)
GI50 [2]: > 100 µM (inactive)
GI50 [3]: > 100 µM (inactive)

CC(=O)OCC1OC(Nc2ncc(-c3ccc(C)cc3)s2)C(OC(C)=O)C(OC(C)=O)C1OC(C)=O (stereo unspecified)
GI50 [1]: 35.6 µM (inactive)
GI50 [2]: 54.1 µM (inactive)

C[n+]1[se]c2ccccc2c1Cl
GI50 [1]: 35.3 µM (inactive)
GI50 [4]: 28.1 µM (inactive)
GI50 [5]: > 45 µM (inactive)
GI50 [2]: 25.7 µM (inactive)
GI50 [6]: 25.1 µM (inactive)

Cc1ccc(C(=O)Cc2nc3c([nH]c2=O)c(C)nn3-c2ccccc2)c(C)c1
GI50 [5]: 3.55 µM (inactive)
GI50 [7]: > 10 µM (inactive)
GI50 [8]: > 10 µM (inactive)
GI50 [9]: > 10 µM (inactive)
GI50 [3]: > 10 µM (inactive)

CN(C)CCOc1cc2c(c3ccccc13)-c1ccccc1C2=O
GI50 [1]: 1.09 µM (active)
GI50 [2]: 1.15 µM (inactive)

COc1ccc(/C(Cl)=C(\C=O)c2ccc(F)cc2)cc1
GI50 [1]: 7.55 µM (inactive)
GI50 [4]: 6.27 µM (inactive)
GI50 [2]: 8.17 µM (inactive)
GI50 [6]: 19.8 µM (inactive)

C=C1C[C@@H](O)C[C@@]2(C)C[C@@H]3OC(=O)C(=C)[C@@H]3C[C@H]12
GI50 [1]: 8.73 µM (inactive)
GI50 [2]: 3.85 µM (inactive)

C[Si](C)(C)/C(I)=C/CO
GI50 [4]: 34.6 µM (inactive)
GI50 [5]: 37.3 µM (inactive)
GI50 [6]: 26.4 µM (inactive)

O=C(O)C(F)(F)C(F)(F)C(F)(F)C(F)(F)C(F)(F)C(F)(F)C(F)(F)C(F)(F)F
GI50 [5]: 83.9 µM (inactive)
GI50 [7]: 29.9 µM (inactive)
GI50 [8]: 48.3 µM (inactive)
GI50 [9]: 49.1 µM (inactive)

CC(=C(c1ccccc1)c1ccccc1)N1C(=O)CC(=O)N1C
GI50 [7]: 20.3 µM (inactive)
GI50 [8]: 41.1 µM (inactive)
GI50 [9]: 34.8 µM (inactive)

COC(=O)C(/C(=N/NC(N)=S)C(=O)Nc1ccccc1[N+](=O)[O-])c1cnc2ccccc2n1 (stereo unspecified)
GI50 [1]: > 100 µM (inactive)
GI50 [4]: > 100 µM (inactive)
GI50 [5]: > 100 µM (inactive)
GI50 [2]: > 100 µM (inactive)
GI50 [6]: > 100 µM (inactive)
GI50 [3]: > 100 µM (inactive)

CCOC(=O)C(=O)NC12CC3CC(CC(C3)C1)C2
GI50 [1]: > 100 µM (inactive)
GI50 [4]: > 100 µM (inactive)
GI50 [2]: > 100 µM (inactive)
GI50 [6]: > 100 µM (inactive)

CCCCCCSc1nc(N)nc2nc[nH]c12
GI50 [2]: 33.7 µM (inactive)

Cc1cc(O)c2c(c1O)C(=O)C13C(=C(O)C4C(O)C1C1C(O)C3C(O)=C3C(=O)c5c(O)cc(C)c(O)c5C(=O)C341)C2=O (stereo unspecified)
GI50 [1]: 0.0146 µM (active)
GI50 [2]: 0.0455 µM (active)

Cc1ccc2c3c1[C@@H]1O[C@@H]1c1cccc(c1-3)[C@@H]1O[C@H]21
GI50 [7]: 21.3 µM (inactive)
GI50 [8]: 14.1 µM (inactive)
GI50 [9]: 17.9 µM (inactive)
GI50 [3]: 11.5 µM (inactive)

CCOC(=O)C1=NN(c2ccc(Cl)cc2)C2=CC(C)=NN(C)C(=S)N21
GI50 [7]: 27.5 µM (inactive)
GI50 [8]: > 100 µM (inactive)
GI50 [3]: > 100 µM (inactive)

O=C(CC/C=C(/CS(=O)(=O)c1ccccc1)S(=O)(=O)c1ccccc1)c1ccccc1
GI50 [1]: 21.7 µM (inactive)
GI50 [2]: > 100 µM (inactive)
GI50 [3]: 56.8 µM (inactive)

CN(C1=NCCO1)c1cccc2ccccc12
GI50 [7]: > 10 µM (inactive)
GI50 [8]: > 10 µM (inactive)
GI50 [3]: > 10 µM (inactive)

O=C(OCc1ccccc1)OOC(=O)OCc1ccccc1
GI50 [1]: > 100 µM (inactive)
GI50 [4]: > 100 µM (inactive)
GI50 [2]: > 100 µM (inactive)
GI50 [3]: > 100 µM (inactive)

C=CCc1cccc2cc(C(=O)Nc3ccc(C)cc3)c(=N)oc12
GI50 [5]: > 100 µM (inactive)
GI50 [7]: > 100 µM (inactive)
GI50 [8]: > 100 µM (inactive)
GI50 [9]: > 100 µM (inactive)
GI50 [3]: > 100 µM (inactive)

O=C(O)c1ccc(C(=O)O)c2c(C(=O)O)ccc(C(=O)O)c12
GI50 [5]: > 100 µM (inactive)
GI50 [7]: > 100 µM (inactive)
GI50 [8]: > 100 µM (inactive)
GI50 [3]: > 100 µM (inactive)

c1ccc(OCc2nnc(CCCCCCCCc3nnc(COc4ccccc4)o3)o2)cc1
GI50 [5]: 47.5 µM (inactive)
GI50 [8]: > 100 µM (inactive)
GI50 [9]: > 100 µM (inactive)

CSCC[C@H](NC(=O)C(CC(C)C)NC(=O)[C@H](Cc1c[nH]cn1)NC(=O)CNC(=O)[C@@H](NC(=O)[C@@H](C)NC(=O)[C@H](Cc1c[nH]c2ccccc12)NC(=O)[C@H](CCC(N)=O)NC(=O)[C@@H](N)CC(N)=O)C(C)(C)SC)C(N)=O (stereo partly specified) (H-NQW[dA][Pen](Me)GH[ξL]M-NH2)
GI50 [1]: > 100 µM (inactive)
GI50 [2]: > 100 µM (inactive)

CN(C)CCNC(=O)c1cc(Cl)cc2cc3ccccc3nc12
GI50 [1]: 0.792 µM (active)
GI50 [2]: 0.652 µM (active)

COC(=O)C1C(O)C(C)C(O)C(C)(O)/C=C\C=C(C)C(=O)Nc2c(C)c(OC(C)=O)c3c(c2O)C(=O)C(C)=C2OCOC(=C23)C(C)=CC(C)(O)C(O)C(C)C1OC(C)=O (stereo unspecified)
GI50 [1]: 16.1 µM (inactive)
GI50 [2]: 24.7 µM (inactive)

COc1c2c(cc3c(CCc4ccccc4)cc(=O)oc13)CCC(C)(C)O2
GI50 [1]: > 100 µM (inactive)
GI50 [4]: > 100 µM (inactive)
GI50 [2]: > 100 µM (inactive)
GI50 [3]: > 100 µM (inactive)

CN1C(=O)CC(=O)N1/C(=C/c1ccccc1)c1ccccc1
GI50 [7]: 28.2 µM (inactive)
GI50 [8]: 66.8 µM (inactive)
GI50 [9]: > 100 µM (inactive)
GI50 [3]: 76.4 µM (inactive)

COC(=O)C(Cc1ccc(N(C)C)cc1)(NC(=O)c1ccccc1)P(=O)(OC)OC (stereo unspecified)
GI50 [1]: > 100 µM (inactive)
GI50 [4]: > 100 µM (inactive)
GI50 [3]: > 100 µM (inactive)

CCOC(=O)C1(C(F)(F)F)N=C(CC)OC(N2CCOCC2)=N1 (stereo unspecified)
GI50 [7]: > 100 µM (inactive)
GI50 [8]: > 100 µM (inactive)
GI50 [9]: > 100 µM (inactive)
GI50 [3]: > 100 µM (inactive)

N=C(N)SCCC(=O)CCSC(=N)N
GI50 [7]: > 100 µM (inactive)
GI50 [8]: > 100 µM (inactive)
GI50 [3]: > 100 µM (inactive)

CCOC(=O)CNC(=O)NC12CC3CC(CC(C3)C1)C2
GI50 [1]: 179 µM (inactive)
GI50 [2]: 65.8 µM (inactive)

O=S1(=O)CC#CC[C@@H](CO)[C@@H](CO)CC#CC1
GI50 [4]: 71.3 µM (inactive)
GI50 [5]: > 100 µM (inactive)
GI50 [2]: > 100 µM (inactive)
GI50 [3]: 38.7 µM (inactive)

CC12CCC(=O)[C@@]1(C)CCCC2O (stereo partly specified)
GI50 [5]: > 100 µM (inactive)
GI50 [7]: > 100 µM (inactive)
GI50 [9]: > 100 µM (inactive)
GI50 [3]: > 100 µM (inactive)

CC=C/C=C/[C@@H]1O[C@](O)([C@H](CC)C(=O)NC/C=C/C=C(\C)[C@@H](OC)[C@@H](C)[C@@H]2O[C@H](/C=C/C=C/C=C(\C)C(=O)c3c(O)cc[nH]c3=O)[C@H](O)[C@@H]2O)[C@H](O)[C@H](O)C1(C)C
GI50 [7]: 43.4 µM (inactive)
GI50 [8]: > 100 µM (inactive)
GI50 [3]: > 100 µM (inactive)

O=C(O)C(O)Cc1ccccn1 (stereo unspecified)
GI50 [7]: > 100 µM (inactive)
GI50 [8]: > 100 µM (inactive)
GI50 [9]: > 100 µM (inactive)
GI50 [3]: > 100 µM (inactive)

CN(C)C(=O)C(F)(F)C(c1ccc(Br)cc1)C1C(=O)N(C)C(=O)N(C)C1=O (stereo unspecified)
GI50 [5]: > 100 µM (inactive)
GI50 [8]: > 100 µM (inactive)
GI50 [9]: > 100 µM (inactive)
